The record followed here is patent US20150344457A1, “METHODS OF INHIBITING PRMT5” (EPIZYME, INC., priority 2012, published 2015).

The structures appear in SMILES notation. A value given as a limit tells only on which side of the number the result lay.

One may read the IC50 as the concentration at which inhibition is half-maximal.

T1 sequence (O14744 with tags, fused parts or gaps): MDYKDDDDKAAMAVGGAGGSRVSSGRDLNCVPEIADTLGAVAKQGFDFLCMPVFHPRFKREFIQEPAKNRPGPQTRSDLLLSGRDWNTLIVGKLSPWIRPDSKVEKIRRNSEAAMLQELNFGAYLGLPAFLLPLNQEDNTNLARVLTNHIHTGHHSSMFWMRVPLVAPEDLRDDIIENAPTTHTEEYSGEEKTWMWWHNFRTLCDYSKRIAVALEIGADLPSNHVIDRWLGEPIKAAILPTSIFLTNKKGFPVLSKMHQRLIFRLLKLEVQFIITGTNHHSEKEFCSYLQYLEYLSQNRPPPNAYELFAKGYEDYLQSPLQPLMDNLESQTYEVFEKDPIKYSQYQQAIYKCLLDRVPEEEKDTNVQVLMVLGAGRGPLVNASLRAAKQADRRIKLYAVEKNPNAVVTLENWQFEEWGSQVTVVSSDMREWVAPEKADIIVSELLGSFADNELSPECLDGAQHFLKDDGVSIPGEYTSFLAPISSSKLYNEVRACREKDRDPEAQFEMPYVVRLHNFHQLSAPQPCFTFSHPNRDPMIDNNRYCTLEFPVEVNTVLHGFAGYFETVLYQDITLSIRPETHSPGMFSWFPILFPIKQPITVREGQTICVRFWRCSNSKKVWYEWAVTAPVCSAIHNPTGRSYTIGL
T1 sequence (Q9BQA1 with tags, fused parts or gaps partner limits assumed): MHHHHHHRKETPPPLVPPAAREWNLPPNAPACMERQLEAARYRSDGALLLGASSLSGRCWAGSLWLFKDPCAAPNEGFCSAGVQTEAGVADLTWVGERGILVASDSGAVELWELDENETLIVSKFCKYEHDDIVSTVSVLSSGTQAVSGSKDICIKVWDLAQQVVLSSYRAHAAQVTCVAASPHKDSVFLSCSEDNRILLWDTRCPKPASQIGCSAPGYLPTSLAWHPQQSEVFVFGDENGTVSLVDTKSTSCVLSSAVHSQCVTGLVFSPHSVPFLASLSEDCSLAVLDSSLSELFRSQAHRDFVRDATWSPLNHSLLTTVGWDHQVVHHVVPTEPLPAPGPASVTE

The experiment has as its target T1, PRMT5/MEP50 (Homo sapiens, UniProt O14744).
T1 construct: Expressed full-length human Flag-PRMT5/6His-MeP50 protein complex was purified; made in house; host or cells: Spodoptera frugiperda (SF9) insect cells, baculovirus (pDEST8)
Nature of the experiment: PRMT5 Biochemical Assay (PRMT5/MEP50 enzyme assay on peptide substrate, 3H-SAM Flashplate). The settings on record: Table D-2; read-out: Biochemical IC50.
For the molecule `Cn1cnc2cnc(-c3cccc(OCC(O)CN4CCc5ccccc5C4)c3)nc21` (stereo not drawn) [Compound D191], the IC50 was in the range of 0.101 to 1 µM.

As to `Cn1cnc2ccc(-c3cncc(NCC(O)CN4CCc5ccccc5C4)c3)cc21` (stereo not drawn) [Compound D199], the IC50 is under 0.1 µM. The figure for `OC(COc1cccc(-c2cc(OC(F)(F)F)ccc2Cl)c1)CN1CCc2ccccc2C1` (stereo not drawn) [Compound D200] is 0.101 to 1 µM. The figure for `CC(C)Oc1ccc(F)c(-c2cccc(OCC(O)CN3CCc4ccccc4C3)c2)c1` (stereo not drawn) [Compound D201] is 0.101 to 1 µM; for `Cn1ncc2ccc(-c3cc(NCC(O)CN4CCc5ccccc5C4)ncn3)cc21` (stereo not drawn) [Compound D205] it is 0.101 to 1 µM.

Take `Cn1cnc2ccc(-c3cc(NCC(O)CN4CCc5ccccc5C4)ncn3)cc21` (stereo not drawn) [Compound D207]: the IC50 fell in the range of 0.101 to 1 µM.
